Data reported in ChEMBL document CHEMBL3132782, “Identification of orally bioavailable small-molecule inhibitors of hematopoietic prostaglandin D2 synthase using X-ray fragment based drug discovery” (Medchemcomm, 2014).
Converted amounts (≈) assume the structure as drawn. Blank lines part the entries; values can stand above or below the compound they belong to. The source made the active and inactive calls. No cut-off for these calls is given here.

What was measured:
[1] = biological target: T1, Hematopoietic prostaglandin D synthase (Homo sapiens, UniProt O60760); experiment: Inhibition of human hematopoietic prostaglandin D2 synthase by fluorescence polarisation assay
T1 sequence (O60760 whole entry): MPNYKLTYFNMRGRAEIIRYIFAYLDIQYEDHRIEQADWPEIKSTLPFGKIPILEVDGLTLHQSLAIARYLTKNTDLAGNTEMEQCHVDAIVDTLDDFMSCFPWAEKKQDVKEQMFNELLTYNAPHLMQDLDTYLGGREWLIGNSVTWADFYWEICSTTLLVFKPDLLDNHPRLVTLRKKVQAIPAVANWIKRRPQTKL

[2] = Aqueous solubility in fasted simulated intestinal fluid at pH 6.5; type: physicochemical
[3] = Aqueous solubility in fed simulated intestinal fluid at pH 6.5; type: physicochemical
[4] = Aqueous solubility in simulated gastric fluid at pH 1.6; type: physicochemical
[5] = Aqueous solubility in water; type: physicochemical
Rattus norvegicus = experiment: fCmax in rat at 3 mg/kg, po by LC-MS/MS method; type: ADME, organism-based; set-up: dose 3 mg/kg, route oral; conditions: in vivo
[6] = Protein binding in rat whole blood at 1 mg/kg, iv or 3 mg/kg, po by LC-MS/MS method; type: ADME, organism-based; conditions: read-out: PB (converted)
[7] = Fraction unbound in rat at 1 mg/kg, iv or 3 mg/kg, po by LC-MS/MS method; type: ADME, organism-based; conditions: in vivo
[8] = Oral bioavailability in rat at 3 mg/kg by LC-MS/MS method; type: ADME, organism-based; conditions: in vivo
[9] = AUC (0 to infinity) in rat at 1 mg/kg, iv or 3 mg/kg, po by LC-MS/MS method; type: ADME, organism-based; conditions: plasma
[10] = Cmax in rat at 3 mg/kg, po by LC-MS/MS method; type: ADME, organism-based; set-up: dose 3 mg/kg, route oral; conditions: in vivo
[11] = Tmax in rat at 3 mg/kg, po by LC-MS/MS method; type: ADME, organism-based; set-up: dose 3 mg/kg, route oral; conditions: in vivo
[12] = Volume of distribution at steady state in rat at 1 mg/kg, iv or 3 mg/kg, po by LC-MS/MS method; type: ADME, organism-based; conditions: in vivo, read-out: Vdss
[13] = Half life in rat at 1 mg/kg, iv or 3 mg/kg, po by LC-MS/MS method; type: ADME, organism-based; conditions: in vivo
Mus musculus = experiment: Reduction in PGD2 level in C57/BL6/J mouse peritoneal lavage supernatants at 30 mg/kg, po measured 40 mins after compound 48/80 injection by enzyme immunoassay pre-treated 30 mins before compound 48/80 injection; type: functional, organism-based; set-up: dose 30 mg/kg
[14] = biological target: T1, Hematopoietic prostaglandin D synthase; experiment: Inhibition of hematopoietic prostaglandin D2 synthase in IgE and IL-5 primed human LAD2 cells assessed as reduction in PGD2 production by mass spectrometry; type: cell-based
[15] = biological target: T1, Hematopoietic prostaglandin D synthase; experiment: Inhibition of human hematopoietic prostaglandin D2 synthase by rapid fire mass spectrometry assay
[16] = biological target: T1, Hematopoietic prostaglandin D synthase; experiment: Inhibition of human hematopoietic prostaglandin D2 synthase at 10 nM by fluorescence polarisation assay
[17] = Blood clearance in rat at 1 mg/kg, iv or 3 mg/kg, po by LC-MS/MS method; type: ADME, organism-based
[18] = biological target: T1, Hematopoietic prostaglandin D synthase; experiment: Inhibition of human hematopoietic prostaglandin D2 synthase at 30 uM by fluorescence polarisation assay
[19] = biological target: T1, Hematopoietic prostaglandin D synthase; experiment: Inhibition of human hematopoietic prostaglandin D2 synthase at 100 uM by fluorescence polarisation assay

IC50 [14]: 4000 nM
IC50 [15]: 501 nM
IC50 [1]: 40 nM
SMILES: CCNC(=O)N1Cc2cc(-c3c[nH]nc3C3CC3)cnc2C1

solubility [2]: 4.6 µg/mL (≈ 13.2 µM)
solubility [3]: < 1 µg/mL
solubility [4]: 203 µg/mL (≈ 584 µM)
solubility [5]: 4.4 µg/mL (≈ 12.7 µM)
SMILES: Cc1cn(NC(=O)c2cnc(-c3ccccn3)nc2)c2ccc(F)cc12

solubility [2]: 31.2 µg/mL (≈ 81.8 µM)
solubility [3]: 44 µg/mL (≈ 115 µM)
solubility [4]: 48.9 µg/mL (≈ 128 µM)
solubility [5]: 16.5 µg/mL (≈ 43.3 µM)
SMILES: Cn1nnnc1N1CCC(NC(=O)c2ccc(-c3cccc(F)c3)nc2)CC1

Continued, compound first:

SMILES: c1nc(NC2CCCC2)c2cc[nH]c2n1
IC50 [1]: 500 nM

SMILES: O=C(NC1CCCC1)N1Cc2cc(-c3c[nH]nc3C3CC3)cnc2C1
solubility [2]: 109 µg/mL (≈ 323 µM)
solubility [3]: 136 µg/mL (≈ 403 µM)
solubility [4]: 885 µg/mL (≈ 2620 µM)
solubility [5]: 52 µg/mL (≈ 154 µM)
fCmax (Rattus norvegicus): 30 nM
fraction unbound [6]: 0.055
fraction unbound [7]: 0.055
bioavailability [8]: 19%
AUC(0-inf) [9]: 295 ng·h/mL
Cmax [10]: 196 ng/mL
Tmax [11]: 0.5 h
Vd [12]: 2.8 L/kg
half-life [13]: 2.2 h
Activity (Mus musculus): Active
IC50 [14]: 317 nM
IC50 [15]: 40 nM
inhibition [16]: 66%
IC50 [1]: < 10 nM
clearance [17]: 33 mL/min/kg

SMILES: Cc1n[nH]cc1-c1ccc(C#N)cc1
inhibition [18]: 52%

SMILES: c1cncc(-c2cn[nH]c2)c1
inhibition [19]: 58%

SMILES: c1cncc(-c2c[nH]nc2C2CC2)c1
IC50 [1]: 17000 nM

SMILES: c1nc(NC2CCCC2)c2cn[nH]c2n1
IC50 [1]: 8500 nM
